# From the OPERA property sets (Mansouri et al. 2018)
row,logP,SMILES
1,1.24,CCOc1ccccc1OCC1CN=C(N)O1 (configuration not stated)
2,2,NC1=NCC(COc2ccc(Cl)cc2)O1 (configuration not stated)
3,0.85,COc1ccccc1OCC1CN=C(N)O1 (configuration not stated)
4,1.4,CN(C)c1cccc(OCC2CN=C(N)O2)c1 (configuration not stated)
5,1.26,COc1ccc(OCC2CN=C(N)O2)cc1 (configuration not stated)
6,1.79,Cc1ccc(OCC2CN=C(N)O2)cc1 (configuration not stated)
7,0.6,NC1=NCC(COc2ccc(N3CCOCC3)cc2)O1 (configuration not stated)

row,SMILES,logP
1,NC1=NCC(COc2cccc([N+](=O)[O-])c2)O1 (configuration not stated),1.23
2,NC1=NCC(COc2ccc([N+](=O)[O-])cc2)O1 (configuration not stated),1.17
3,NC1=NCC(COc2ccccc2)O1 (configuration not stated),1.27
4,NC1=NCC(COc2ccccc2Cl)O1 (configuration not stated),1.77
5,Cc1ccccc1OCC1CN=C(N)O1 (configuration not stated),1.69
